From patent US7550431B2, “Spatially-defined macrocycles incorporating peptide bond surrogates” (Tranzyme Pharma Inc., priority 2003, dated 2009)

How the values were obtained:
human motilin receptor = target: T1, human motilin receptor (Homo sapiens, UniProt O43193); assay: Competitive radioligand binding assay (motilin receptor), Method B1; conditions: [125I]-motilin competition, CHO cell membranes
T1 construct: purchased PerkinElmer (SignalScreen) 6110544; host or cells: CHO cells, stably transfected (membranes)
T1 sequence (O43193 whole entry): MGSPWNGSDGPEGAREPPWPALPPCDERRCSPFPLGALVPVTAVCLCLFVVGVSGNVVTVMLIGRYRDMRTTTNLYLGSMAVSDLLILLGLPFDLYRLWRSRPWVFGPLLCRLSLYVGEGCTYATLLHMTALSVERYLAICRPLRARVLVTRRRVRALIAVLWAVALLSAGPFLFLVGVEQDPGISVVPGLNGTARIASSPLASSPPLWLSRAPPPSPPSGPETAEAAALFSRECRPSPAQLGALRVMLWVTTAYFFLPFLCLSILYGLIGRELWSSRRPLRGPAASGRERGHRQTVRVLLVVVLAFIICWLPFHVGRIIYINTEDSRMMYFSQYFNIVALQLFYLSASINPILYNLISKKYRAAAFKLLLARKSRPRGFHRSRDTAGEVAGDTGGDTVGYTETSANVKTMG
Procedure: (§1) The compounds of the present invention were evaluated for their ability to interact at the human motilin receptor and the human ghrelin receptor utilizing competitive radioligand binding assays as described in Method B1 and B2, respectively. Further characterization of the interaction can be performed utilizing the functional assays described in Methods B3 and B4 for the motilin and ghrelin receptors, respectively. All of these methods can be conducted, if so desired, in a high throughput manner to permit the simultaneous evaluation of many compounds.
Competitive Radioligand Binding Assay (Motilin Receptor)
• Membranes were prepared from CHO cells stably transfected with the human motilin receptor and utilized at a quantity of 1.5 μg/assay point. [PerkinElmer® SignalScreen® Product #6110544, Perkin Elmer, Inc., Wellesley, Mass.] • [^125I]-Motilin (PerkinElmer®, #NEX-378); final concentration: 0.04-0.06 nM • Motilin (Bachem®, #H-4385, Bachem AG Corporation, Bubendorf, Switzerland); final concentration: 1 μM • Multiscreen® Harvest plates-GF/B (Millipore®, #MAHFB1H60, Millipore Corporation, Billerica, Mass.) • Deep-well polypropylene titer plate (Beckman Coulter®, #267006, Beckman Coulter, Inc., Fullerton, Calif.) • TopSeal-A (PerkinElmer®, #6005185) • Bottom seal (Millipore®, #MATAH0P00) • MicroScint™-0 (PerkinElmer®, #6013611) • Binding Buffer: 50 mM Tris-HCl (pH 7.4), 10 mM MgCl2, 1 mM EDTA, 0.1% BSA
Assay Volumes: • 150 μl of membranes diluted in binding buffer • 10 μl of compound diluted in binding buffer • 10 μl of radioligand ([^125I]-Motilin) diluted in binding buffer
(§2) Compounds were provided frozen on dry ice at a stock concentration of 10 mM diluted in 100% DMSO and stored at −20° C. until the day of testing. On the test day, compounds were allowed to thaw at room temperature and than diluted in assay buffer according to the desired test concentrations. Under these conditions, the maximum final DMSO concentration in the assay was 0.5%.
In deep-well plates, diluted cell membranes (1.5 μg/mL) are combined with 10 μl of either binding buffer (total binding, N=5), 1 μM motilin (non-specific binding, N=3) or the appropriate concentration of test compound. The reaction is initiated by addition of 10 μl of [^125I]-motilin (final conc. 0.04-0.06 nM) to each well. Plates are sealed with TopSeal-A, vortexed gently and incubated at room temperature for 2 hours. The reaction is arrested by filtering samples through pre-soaked (0.3% polyethyleneimine, 2 h) Multiscreen® Harvest plates using a Tomtec ® Harvester (TomTec, Inc., Hamden Conn.), washed 9 times with 500 μl of cold 50 mM Tris-HCl (pH 7.4), and than plates are air-dried in a fumehood for 30 minutes. A bottom seal is applied to the plates prior to the addition of 25 μl of MicroScint™-0 to each well. Plates are than sealed with TopSeal-A and counted for 30 sec per well on a TopCount® Microplate Scintillation and Luminescence Counter (PerkinElmer®) where results are expressed as counts per minute (cpm).
Data are analyzed by GraphPad Prism® (GraphPad Software, Inc., San Diego, Calif.) using a variable slope non-linear regression analysis.
[formula] where total and non-specific binding represent the cpm obtained in the absence or presence of 1 μM motilin, respectively.

[1] = target: T2, human ghrelin receptor (hGHS-R1a) (Homo sapiens, UniProt Q92847); assay: Competitive radioligand binding assay (ghrelin receptor), Method B2; conditions: [125I]-ghrelin competition, HEK-293 cell membranes
T2 construct: purchased PerkinElmer BioSignal RBHGHSM, lot#1887; host or cells: HEK-293 cells, stably transfected (membranes GHS-R/HEK 293)
T2 sequence (Q92847 whole entry): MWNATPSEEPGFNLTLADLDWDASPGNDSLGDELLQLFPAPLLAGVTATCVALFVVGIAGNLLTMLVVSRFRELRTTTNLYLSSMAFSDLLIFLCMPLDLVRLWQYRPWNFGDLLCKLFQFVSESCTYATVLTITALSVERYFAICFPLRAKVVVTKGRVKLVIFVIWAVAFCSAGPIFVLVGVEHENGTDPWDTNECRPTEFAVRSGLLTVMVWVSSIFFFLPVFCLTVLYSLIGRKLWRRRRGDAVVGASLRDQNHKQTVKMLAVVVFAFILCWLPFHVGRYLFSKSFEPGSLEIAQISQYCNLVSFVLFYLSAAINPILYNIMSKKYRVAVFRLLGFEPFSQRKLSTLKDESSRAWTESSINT
Procedure: as §1
Competitive Radioligand Binding Assay (Ghrelin Receptor)
The competitive binding assay at the human growth hormone secretagogue receptor (hGHS-R1a) was carried out analogously to assays described in the literature. (Bednarek M A et al. (2000), Structure-function studies on the new growth hormone-releasing peptide ghrelin: minimal sequence of ghrelin necessary for activation of growth hormone secretagogue receptor 1a; J Med Chem 43:4370-4376. Palucki B L et al. (2001), Spiro(indoline-3,4′-piperidine) growth hormone secretagogues as ghrelin mimetics; Bioorg Med Chem Lett 11:1955-1957.)
• Membranes (GHS-R/HEK 293) were prepared from HEK-293 cells stably transfected with the human ghrelin receptor (hGHS-R1a).
as §2, with “−80°” for “−20°”, “rt overnight” for “room temperature”, “then” for “than”, “maximal” for “maximum”, “0.1%.” for “0.5%.”
In deep-well plates, 220 μl of diluted cell membranes (final concentration: 0.71 μg/well) were combined with 40 μl of either binding buffer (total binding, N=5), 1 μM ghrelin (non-specific binding, N=3) or the appropriate concentration of test compound (N=2 for each test concentration). […] Plates were sealed with TopSeal-A, vortexed gently and incubated at rt for 30 min. The reaction was arrested by filtering samples through Multiscreen® Harvest plates (pre-soaked in 0.5% polyethyleneimine) using a Tomtec® Harvester, washed 9 times with 500 μL of cold 50 mM Tris-HCl (pH 7.4, 4° C.), and then plates were air-dried in a fumehood for 30 min. A bottom seal was applied to the plates prior to the addition of 25 μl of MicroScint™-0 to each well. Plates were than sealed with TopSeal-A and counted for 30 sec per well on a TopCount® Microplate Scintillation and Luminescence Counter (PerkinElmer®) using a count delay of 60 sec. Results were expressed as counts per minute (cpm).
Data were analyzed by GraphPad Prism® (GraphPad Software, Inc., San Diego, Calif.) using a variable slope non-linear regression analysis.

Structure (SMILES) | Ki (human motilin receptor) [nM] | Ki [1] [nM]
CC(C)[C@H]1CC[C@@H](Cc2cccc(Cl)c2)NCCOc2ccccc2CCCNC(=O)[C@H](CNC(=N)N)NC1=O [Compound 101] | 10 to 100 | 
CCC[C@@H]1/C=C/[C@@H](C(C)C)NC(=O)[C@@H](Cc2cccc(Cl)c2)NCCOc2ccccc2CCCNC1=O [Compound 104] | 1000 to 10000 | 
CCC[C@@H]1NC(=O)[C@@H](C(C)C)/C=C/[C@@H](Cc2ccc(OC)cc2)NCCOc2ccccc2CCCNC1=O [Compound 105] | 1000 to 10000 | 
CCC[C@@H]1NC(=O)C(C(C)C)CC[C@@H](Cc2ccc(OC)cc2)NCCOc2ccccc2CCCNC1=O (stereo partly shown) [Compound 110] | 1000 to 10000 | 
CCC[C@@H]1NC(=O)[C@@H](C(C)C)OC(=O)[C@@H](Cc2cccc3ccccc23)NCCOc2ccccc2CCCNC1=O [Compound 111] | 100 to 1000 | 
CCC[C@@H]1NC(=O)[C@@H](C(C)C)NC(=O)[C@@H](Cc2ccc(O)cc2)NCCOc2ccccc2CCCOC1=O [Compound 115] | 1000 to 10000 | 
CCC[C@@H]1NC(=O)[C@@H](C(C)C)OC(=O)[C@@H](Cc2ccc(O)cc2)NCCOc2ccccc2CCCNC1=O [Compound 119] | 100 to 1000 | 
CN1CC(=O)N[C@H](Cc2ccccc2)C(=O)NCCCc2ccccc2OCCN[C@@H](CCCCN)C1=O [Compound 127] |  | 1000 to 10000
CCC(C)[C@@H]1NCCOc2ccccc2CCCNC(=O)[C@@H](Cc2ccccc2)NC(=O)[C@H](C(C)C)N(C)C1=O (stereo partly shown) [Compound 131] |  | 100 to 1000
CCC(C)[C@@H]1NCCOc2ccccc2CCCNC(=O)[C@@H](Cc2ccccc2)NC(=O)[C@@H](C(C)CC)N(C)C1=O (stereo partly shown) [Compound 136] |  | 1000 to 10000
CCC(C)[C@@H]1NCCOc2ccccc2CCCNC(=O)[C@@H](Cc2ccccc2)NC(=O)[C@H](C(C)CC)N(C)C1=O (stereo partly shown) [Compound 138] |  | 100 to 1000
C[C@@H]1C(=O)N[C@H](Cc2ccc(F)cc2)C(=O)NCCOCCOCCN[C@@H](C2CC2)C(=O)N1C [Compound 140] |  | 1000 to 10000
CCC[C@H]1C(=O)N(C)[C@H](C)C(=O)N[C@H](Cc2ccccc2)C(=O)NCCCc2ccccc2OCCN1C [Compound 167] |  | 100 to 1000

More lines, now with the values ahead:

Ki (human motilin receptor) [nM] | Ki [1] [nM] | Structure (SMILES)
1000 to 10000 |  | CCC[C@@H]1CC[C@@H](C(C)C)NC(=O)[C@@H](Cc2cccc(Cl)c2)NCCOc2ccccc2CCCNC1=O [Compound 103]
100 to 1000 |  | CCC[C@@H]1NC(=O)[C@@H](C(C)C)CC[C@@H](Cc2ccc(OC)cc2)NCCOc2ccccc2CCCNC1=O [Compound 109]
100 to 1000 |  | CCC[C@@H]1NC(=O)C(C(C)C)OC(=O)[C@@H](Cc2ccc(OC)cc2)NCCOc2ccccc2CCCNC1=O (stereo partly shown) [Compound 112]
100 to 1000 |  | CC(C)C[C@H]1C(=O)NCCCc2ccccc2OCCN[C@H](Cc2ccc(O)cc2)C(=O)N[C@H](C(C)C)C(=O)N1C [Compound 116]
 | 1000 to 10000 | C[C@@H]1NCCOc2ccccc2CCCNC(=O)[C@@H](Cc2ccccc2)NC(=O)CN(C)C1=O [Compound 124]
 | 100 to 1000 | CN1CC(=O)N[C@H](Cc2ccccc2)C(=O)NCCCc2ccccc2OCCN[C@@H](Cc2ccccc2)C1=O [Compound 128]
 | 100 to 1000 | C[C@@H]1C(=O)N[C@H](Cc2ccc(F)cc2)C(=O)NCCOc2cccc(c2)OCCN[C@@H](C2CC2)C(=O)N1C [Compound 149]
 | 1000 to 10000 | CCC[C@@H]1NCc2cccc(c2)CNC(=O)[C@@H](Cc2ccccc2)NC(=O)CN(C)C1=O [Compound 158]
 | 10 to 100 | CCC(C)[C@@H]1NCCOc2ccccc2/C=C/CNC(=O)N(Cc2ccccc2)NC(=O)[C@@H](C)N(C)C1=O (stereo partly shown) [Compound 165]
